Reference: article PMC8675232 (Frontiers in Pharmacology, 2021)

Assays:
[1] = in vivo; cited from earlier work
[2] = test system: healthy Chinese male volunteers; experiment: Pharmacodynamics (glucose infusion rate) in 24-h euglycemic clamp; type: in vivo; details: 0.4 IU/kg s.c. single dose, mean ± SD
Description: The volunteers were screened and qualified for the entry standard. […] During the trial, volunteers were requested to avoid strenuous exercises, smoking, drinking alcohol, or caffeinated drinks (e.g., tea and coffee). […] C-peptide reduction rate <30%; group B: […] The trial was carried out in accordance with the principles of the Declaration of Helsinki. This study was approved by the Ethics Committee of the First Affiliated Hospital of ChongQing Medical University (No. 20190101). All recruited volunteers underwent a single-dose euglycemic clamp test. Participants arrived at the ward on the day prior to the clamp test to ensure a 10-h fasting condition and to maintain fasting during euglycemic clamping. […] Intravenous access was obtained in one arm for a 20% glucose infusion and in the other for blood drawing. The arm for blood drawing was heated using a warming blanket to arterialize venous blood (55-65°C). […] Basal glucose (BG) was defined as the average blood glucose level before injection; the target glucose (TG) level was defined as the BG minus 0.28 mmol/[…] al., 2015b]); and we controlled the blood glucose concentration as close as possible to the TG level. The glucose infusion rate (GIR) was manually adjusted by investigators to maintain blood glucose at the target value. […] SPSS 22.0 and WinNonlin 8.1 were used for statistical analysis. […] The oscillation of glucose was calculated with formula 1-Gt (glucose at time t)/Gd (desired glucose). […] The pharmacodynamic parameters were area under the glucose infusion rate versus time curve (AUCGIR0-24 h), peak of glucose infusion rate (GIRmax), and time to […]).

[3] = group A (C-peptide reduction <30%, n = 13)
[4] = group B (C-peptide reduction ≥30% and <50%, n = 15)
[5] = group C (C-peptide reduction ≥50%, n = 11)

C-peptide
half-life [1]: 20 to 30 min

insulin glargine
AUCGIR0–24 h [2, 3]: 3175.9 ± 1135.2 mg/kg
GIRmax [2, 3]: 3.5 ± 1.3 mg/kg/min
TGIRmax [2, 3]: 593.1 ± 198.1 min
AUCGIR0–24 h [2, 4]: 2862.9 ± 1176.0 mg/kg
GIRmax [2, 4]: 3.4 ± 1.4 mg/kg/min
TGIRmax [2, 4]: 584.0 ± 199.1 min
AUCGIR0–24 h [2, 5]: 2526.1 ± 1222.0 mg/kg
GIRmax [2, 5]: 3.0 ± 1.5 mg/kg/min
TGIRmax [2, 5]: 756.4 ± 228.0 min
